How the values were obtained:
[1] = test system: HCT-15 human colon tumor cells; experiment: SRB (sulforhodamine B) assay, antiproliferative activity, HCT-15; format: cell-based
Experimental: (§1) Anticancer activities of the inclusion compounds synthesized in Synthesis Examples 1 and 2 were measured as follows.
(§2) First, the oxaliplatin-cucurbitu[7]ril inclusion compounds synthesized in Synthesis Examples 1 and 2, were freeze-dried to prepare samples. Tumor cells used were A 549 (human non-small cell lung), SKOV-3 (human ovarian), SKMEL-2 (human melanoma), XF498 (human CNS), and HCT-15 (human colon), and analyzed by SRB (sulforhodamine B) assay.

[2] = test system: SKMEL-2 human melanoma tumor cells; experiment: SRB (sulforhodamine B) assay, antiproliferative activity, SKMEL-2; format: cell-based
Experimental: as §1, §2

[3] = test system: XF-498 human CNS tumor cells; experiment: SRB (sulforhodamine B) assay, antiproliferative activity, XF-498; format: cell-based
Experimental: as §1, §2

[4] = test system: SKOV-3 human ovarian tumor cells; experiment: SRB (sulforhodamine B) assay, antiproliferative activity, SKOV-3; format: cell-based
Experimental: as §1, §2

[5] = test system: A549 human non-small cell lung tumor cells; experiment: SRB (sulforhodamine B) assay, antiproliferative activity, A549; format: cell-based
Experimental: as §1, §2

[6] = Isothermal microcalorimeter titration of oxaliplatin and cucurbitu[7]ril; format: physicochemical; details: 25° C., 20 mM oxaliplatin, 1 mM cucurbitu[7]ril

## N.N.[Cl][Pt][Cl] [Cisplatin]
[1]
  Antiproliferative activity (ED50/μM): 1.32 µM
[2]
  Antiproliferative activity (ED50/μM): 3.08 µM
[3]
  Antiproliferative activity (ED50/μM): 0.46 µM
[4]
  Antiproliferative activity (ED50/μM): 2.87 µM
[5]
  Antiproliferative activity (ED50/μM): 1.17 µM

## N[C@@H]1CCCC[C@H]1N.O=C([O-])C(=O)[O-].[Pt+2] (relative stereo) [Oxaliplatin, (trans-L-diaminocyclohexane)oxalatoplatinum (II)]
[1]
  Antiproliferative activity (ED50/μM): 0.90 µM
[6]
  binding constant: 2.39×10^5(±0.4) M^−1
  binding enthalpy: -26.5 kJ/mol
[2]
  Antiproliferative activity (ED50/μM): 0.97 µM
[3]
  Antiproliferative activity (ED50/μM): 0.49 µM
[4]
  Antiproliferative activity (ED50/μM): 0.67 µM
[5]
  Antiproliferative activity (ED50/μM): 0.42 µM

— patent publication US7459471B2, “Inclusion compound comprising cucurbituril derivatives as host molecule and pharmaceutical composition comprising the same” (Postech Foundation, priority 2001, dated 2008)
